Experimental data from patent US20090275648A1, “MACROCYCLIC GHRELIN RECEPTOR ANTAGONISTS AND INVERSE AGONISTS AND METHODS OF USING THE SAME” (priority 2005, published 2009).

Columns and labels:
ghrelin receptor = ghrelin receptor (Homo sapiens, UniProt Q92847); assay: Inverse agonist assay, Example 4; format: cell-based; conditions: inverse agonist activity
Description: The inverse agonist activity at the ghrelin receptor for compounds of the invention can be determined using the methods described in Intl. Pat. Appl. Publ. No. WO 2004/056869 and Holst, B.; Cygankiewicz, A.; Halkjaer, T.; Ankersen, A.; Schwartz, T. W. High constitutive signaling of the ghrelin receptor—identification of a potent inverse agonist. Mol. Endocrinol. 2003, 17, 2201-2210.

[1] = target: T1, HEK293 cells expressing GHS-R1a receptor (Homo sapiens, UniProt Q92847); assay: Fluorescence functional assay (ghrelin receptor), Example 2; format: cell-based; conditions: assay of Example 2 (fluorescence, calcium)
T1 construct: host or cells: HEK293 cells (grown under geneticin selection)
Experimental: The compounds of the present invention were evaluated for their ability to interact at the human ghrelin receptor utilizing a competitive radioligand binding assay, fluorescence assay or Aequorin functional assay as described in the examples below. Such methods can be conducted, if so desired, in a high throughput manner to permit the simultaneous evaluation of many compounds.
• 1. Hanks' BSS without phenol red (Life Technologies) • 2. Hepes buffer • 3. Probenecid (Sigma) • 4. FLIPR Calcium-3 Assay Kit (Molecular Devices #R-8091) • 5. Falcon cell culture 96-well black/clear bottom plates • 6. 0.05% trypsin-EDTA • 7. […]
The plates were removed from the incubator and the media removed by inversion of the plates. […] For agonist testing, after reading for ten (10) sec, 25 μL of 2× test compound or control was injected into the assay plate. Fluorescence was monitored for an additional 50 sec. A reading was taken every two (2) seconds for a total of 30 readings per assay point.
For antagonist testing, after reading for ten (10) sec, 12.5 μL of 3× test compound or control was injected into the assay plate and allowed to react for three (3) min. At that time, 4 nM ghrelin (corresponds to EC80) was injected and fluorescence was monitored for an additional 60 sec. A reading was taken every two (2) seconds for a total of 125 readings per data point. […]

Chain of ghrelin receptor (Q92847 whole entry): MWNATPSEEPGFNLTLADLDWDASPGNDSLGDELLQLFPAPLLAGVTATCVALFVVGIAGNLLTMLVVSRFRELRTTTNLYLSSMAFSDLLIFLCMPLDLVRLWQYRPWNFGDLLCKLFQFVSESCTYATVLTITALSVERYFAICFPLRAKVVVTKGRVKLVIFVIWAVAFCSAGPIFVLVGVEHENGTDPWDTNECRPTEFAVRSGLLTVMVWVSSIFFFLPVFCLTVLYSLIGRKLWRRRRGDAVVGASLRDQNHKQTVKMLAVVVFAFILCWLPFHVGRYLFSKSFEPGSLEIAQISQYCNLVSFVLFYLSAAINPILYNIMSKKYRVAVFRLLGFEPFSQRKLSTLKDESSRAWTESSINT
T1 sequence (Q92847 whole entry): as above

IC50 (ghrelin receptor): 0.001 to 0.1 µM
Ki [1]: 0.1 to 1 µM
SMILES: CCC(C)[C@@H]1NCCOc2ccccc2/C=C/CNC(=O)[C@@H](Cc2ccccc2)NC(=O)[C@H](C(C)O)N(C)C1=O (some centres unmarked) [Compound 502]
